Experimental data reported in patent US10030012B2, “Piperidin-1-yl and azepin-1-yl carboxylates as muscarinic M4 receptor agonists” (Heptares Therapeutics Limited, priority 2013, dated 2018).

Assays:
human M2 receptor = human M2 receptor (Homo sapiens (Human), UniProt P08172); test: In vitro M2 functional assay (intracellular calcium, FLiPR Tetra); format: cell-based; details: for EC50 / M2 EC50: CHOK1 cells stably expressing human M2 receptor and Gα16, calcium flux, No Response = no significant response of calcium flux indicative of agonism; for activation at 10 µM: response at 10 μM compound, relative to an EC100 concentration of acetylcholine, read-out: M2 % RE @ 10 μM
How it was run: (§1)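 CHOK1 cells stably expressing human M4 or M2 with Gα16, loaded with Calcium 5 dye 45 min at 37° C in HBSS/HEPES/BSA/probenecid pH 7.4. Fluorescence read 5 min after compound; EC50 from ten-point half-log curves, duplicate wells, four-parameter fit; efficacy relative to EC100 acetylcholine.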

human M4 receptor = human M4 receptor (Homo sapiens (Human), UniProt P08173); test: In vitro M4 functional assay (intracellular calcium, FLiPR Tetra); format: cell-based; details: for EC50: CHOK1 cells stably expressing human M4 receptor and Gα16, calcium flux; for Emax: relative efficacy to an EC100 concentration of acetylcholine, read-out: M4 % RE
How it was run: as §1

Chain of human M2 receptor (P08172 whole entry): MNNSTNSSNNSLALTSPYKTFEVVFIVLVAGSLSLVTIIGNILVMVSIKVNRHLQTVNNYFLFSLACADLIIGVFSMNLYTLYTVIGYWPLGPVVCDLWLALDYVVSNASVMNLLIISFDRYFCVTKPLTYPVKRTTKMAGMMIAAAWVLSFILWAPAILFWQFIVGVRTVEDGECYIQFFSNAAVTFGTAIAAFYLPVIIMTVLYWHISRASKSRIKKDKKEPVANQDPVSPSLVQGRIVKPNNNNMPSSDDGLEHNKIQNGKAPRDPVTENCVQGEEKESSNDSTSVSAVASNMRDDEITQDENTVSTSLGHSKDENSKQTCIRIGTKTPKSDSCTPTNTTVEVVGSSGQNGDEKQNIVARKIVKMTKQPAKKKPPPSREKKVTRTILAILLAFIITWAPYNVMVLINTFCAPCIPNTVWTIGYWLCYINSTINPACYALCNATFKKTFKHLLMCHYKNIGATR
Chain of human M4 receptor (P08173 whole entry): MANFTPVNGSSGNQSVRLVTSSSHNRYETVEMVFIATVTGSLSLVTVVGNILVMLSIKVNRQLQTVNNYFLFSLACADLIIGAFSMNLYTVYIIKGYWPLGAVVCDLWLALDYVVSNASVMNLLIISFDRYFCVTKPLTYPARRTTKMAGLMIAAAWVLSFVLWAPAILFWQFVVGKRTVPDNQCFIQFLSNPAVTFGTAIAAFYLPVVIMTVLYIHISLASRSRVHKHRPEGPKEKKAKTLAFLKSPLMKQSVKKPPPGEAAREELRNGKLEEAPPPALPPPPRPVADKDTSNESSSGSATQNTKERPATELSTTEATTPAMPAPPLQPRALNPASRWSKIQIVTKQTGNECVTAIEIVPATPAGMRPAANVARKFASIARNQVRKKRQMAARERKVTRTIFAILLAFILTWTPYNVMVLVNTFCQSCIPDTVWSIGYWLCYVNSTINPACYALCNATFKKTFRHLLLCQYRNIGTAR

Compound | EC50 (human M2 receptor) | activation at 10 µM (human M2 receptor) | EC50 (human M4 receptor) | Emax (human M4 receptor) | M2 EC50 (human M2 receptor) | M2 % RE (human M2 receptor; relative efficacy to an EC100 concentration of acetylcholine)
CCOC(=O)N1CCCC(N2CCC(c3nnccc3OC)CC2)CC1 (stereo not drawn) [Example 71, Ethyl 4-[4-(4-methoxypyridazin-3-yl)piperidin-1-yl]azepane-1-carboxylate] |  |  | 1.05 µM | 45% | No Response | 
CCOC(=O)N1CCCC(N2CCC(c3cccnc3-c3cnn(C)c3)CC2)CC1 (stereo not drawn) [Example 73, Ethyl 4-{4-[2-(1-methyl-1H-pyrazol-4-yl)pyridin-3-yl]piperidin-1-yl}azepane-1-carboxylate] |  |  | 0.65 µM | 53% | No Response | 
CCOC(=O)N1CCCC(N2CCC(c3ncccn3)CC2)CC1 (stereo not drawn) [Example 74, Ethyl 4-[4-(pyrimidin-2-yl)piperidin-1-yl]azepane-1-carboxylate] | > 10 µM | 20% | 1.05 µM | 61% |  | 
CCOC(=O)N1CCCC(N2CCC(c3cncnc3C)CC2)CC1 (stereo not drawn) [Example 75, Ethyl 4-[4-(4-methylpyrimidin-5-yl)piperidin-1-yl]azepane-1-carboxylate] |  |  | 1.01 µM | 52% | No Response | 
CCOC(=O)N1CCCC(N2CCC(c3cccnc3CC(C)C)CC2)CC1 (stereo not drawn) [Example 77, Ethyl 4-{4-[2-(2-methylpropyl)pyridin-3-yl]piperidin-1-yl}azepane-1-carboxylate] |  |  | 0.67 µM | 58% | No Response | 
COC(=O)N1CCC(CN2CCC(n3nc(C)cc3C)C2)CC1 (stereo not drawn) [Example 78, Methyl 4-{[3-(3,5-dimethyl-1H-pyrazol-1-yl)pyrrolidin-1-yl]methyl}piperidine-1-carboxylate] |  |  | 2.68 µM | 36% | No Response | 
CCOC(=O)N1CCCC(N2CCC(c3cccnc3-c3ncco3)CC2)CC1 (stereo not drawn) [Example 80, Ethyl 4-{4-[2-(1,3-oxazol-2-yl)pyridin-3-yl]piperidin-1-yl}azepane-1-carboxylate] |  |  | 0.85 µM | 43% | No Response | 
CCOC(=O)N1CCC[C@H](N2CCC(c3nccn3C)CC2)CC1 [Example 83, Ethyl (4S)-4-[4-(1-methyl-1H-imidazol-2-yl)piperidin-1-yl]azepane-1-carboxylate] |  |  | 1.5 µM | 55% | No response | 

Stronger by EC50 (human M4 receptor), values ahead:

EC50 (human M2 receptor) | activation at 10 µM (human M2 receptor) | EC50 (human M4 receptor) | Emax (human M4 receptor) | M2 EC50 (human M2 receptor) | M2 % RE (human M2 receptor; relative efficacy to an EC100 concentration of acetylcholine) | Compound
> 10 µM | 21% | 0.63 µM | 63% |  |  | CCOC(=O)N1CCCC(N2CCC(n3nccc3C(F)(F)F)CC2)CC1 (stereo not drawn) [Example 69, Ethyl 4-{4-[5-(trifluoromethyl)-1H-pyrazol-1-yl]piperidin-1-yl}azepane-1-carboxylate]
 |  | 0.34 µM | 50% | No Response |  | CCOC(=O)N1CCC(CN2CCC(n3nc(C)cc3C)C2)CC1 (stereo not drawn) [Example 79, Ethyl 4-{[3-(3,5-dimethyl-1H-pyrazol-1-yl)pyrrolidin-1-yl]methyl}piperidine-1-carboxylate]
 |  | 0.31 µM | 67% | No response |  | CCOC(=O)N1CCC[C@@H](N2CCC(c3cccnc3OC)CC2)CC1 [Example 86, Ethyl (4R)-4-[4-(2-methoxypyridin-3-yl)piperidin-1-yl]azepane-1-carboxylate]
2.02 µM |  | 0.27 µM | 63% |  | 20% | CCOC(=O)N1CCC(N2CCC(c3cccc(OCC)n3)CC2)CC1 [Example 72, Ethyl 4-[4-(6-ethoxypyridin-2-yl)piperidin-1-yl]piperidine-1-carboxylate]
 |  | 0.21 µM | 64% | No Response |  | CCOC(=O)N1CCCC(N2CCC(c3cccnc3CC)CC2)CC1 (stereo not drawn) [Example 70, Ethyl 4-[4-(2-ethylpyridin-3-yl)piperidin-1-yl]azepane-1-carboxylate]
 |  | 0.085 µM | 83% | No response |  | CCOC(=O)N1CCC[C@H](N2CCC(n3cccn3)CC2)CC1 [Example 81, Ethyl (4S)-4-[4-(1H-pyrazol-1-yl)piperidin-1-yl]azepane-1-carboxylate]
 |  | 0.026 µM | 91% | No response |  | CCOC(=O)N1CCC[C@H](N2CCC(c3cccnc3OC)CC2)CC1 [Example 85, Ethyl (4S)-4-[4-(2-methoxypyridin-3-yl)piperidin-1-yl]azepane-1-carboxylate]
 |  | 0.022 µM | 84% | No Response |  | CCOC(=O)N1CCCC(N2CCC(c3cccnc3OCc3cscn3)CC2)CC1 (stereo not drawn) [Example 76, Ethyl 4-{4-[2-(1,3-thiazol-4-ylmethoxy)pyridin-3-yl]piperidin-1-yl}azepane-1-carboxylate]
